Results: patent US20140249135A1, “PIM KINASE INHIBITORS AND METHODS OF THEIR USE” (NOVARTIS AG, priority 2007, published 2014)
Like-named read-outs stand apart in the source and are kept apart here.

Experiments:
[1] = molecular target: Pim1 kinase (Homo sapiens, UniProt P11309); assay: Pim1 ATP depletion assay; format: biochemical; conditions: Pim1 ATP depletion assay;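 further: Luciferase-luciferin luminescence readout of residual ATP after PIM1 transfers phosphate to a peptide substrate, 40 µM ATP added, reaction run to roughly half ATP consumption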
Chain of Pim1 kinase (P11309 whole entry): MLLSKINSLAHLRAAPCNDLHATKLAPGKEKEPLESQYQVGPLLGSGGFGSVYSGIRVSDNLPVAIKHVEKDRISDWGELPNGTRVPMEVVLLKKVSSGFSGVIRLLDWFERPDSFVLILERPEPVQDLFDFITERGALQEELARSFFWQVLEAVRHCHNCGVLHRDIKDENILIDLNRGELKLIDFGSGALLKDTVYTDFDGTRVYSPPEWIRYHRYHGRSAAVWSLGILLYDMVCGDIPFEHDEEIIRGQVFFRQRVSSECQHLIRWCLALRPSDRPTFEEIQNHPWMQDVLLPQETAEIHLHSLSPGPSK

[2] = tested on: HEL 92.1.7 cells; assay: Cell proliferation assay (CellTiter-Glo), HEL 92.1.7; format: cell-based; conditions: Homo sapiens
Experimental: HEL 92.1.7 cells (ATTC No. TIB-180, an erythroleukemia line derived from malignant peripheral blood), MV4-11 cells (ATCC No. CRL-9591, a human acute monocytic leukemia line) and PC3 cells (ATCC No. CRL-1435, a human prostatic adenocarcinoma line) were cultured in RPMI1640 supplemented with 10% FBS, sodium pyruvate and antibiotics. Cells were plated in the same medium at a density of 1000 cells per well into 96 well tissue culture plates, with outside wells vacant, on the day of assay.
Test compounds supplied in DMSO were diluted into DMSO at 500 times the desired final concentrations before dilution into culture media to 2 times final concentrations. Equal volumes of 2× compounds were added to the cells in 96 well plates and incubated at 37° C. for 3 days.
After 3 days plates were equilibrated to room temperature and equal volume of CellTiter-Glow Reagent (Promega) was added to the culture wells. The plates were agitated briefly and luminescent signal was measured with luminometer. The percent inhibition of the signal seen in cells treated with DMSO alone vs. cells treated with control compound was calculated and used to determine EC50 values (i.e., the concentration of a test compound that is required to obtain 50% of the maximum effect in the cells) for tested compounds, as shown in Example 763.

[3] = molecular target: Pim2 kinase (Homo sapiens, UniProt Q9P1W9); assay: Pim2 ATP depletion assay; format: biochemical;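 further: Luciferase-based luminescent readout of ATP remaining after PIM2 phosphorylates a BAD peptide, final 5 nM enzyme, 4 µM ATP, 10 µM peptide, 2.5% DMSO, run to roughly half ATP consumption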
Chain of Pim2 kinase (Q9P1W9 whole entry): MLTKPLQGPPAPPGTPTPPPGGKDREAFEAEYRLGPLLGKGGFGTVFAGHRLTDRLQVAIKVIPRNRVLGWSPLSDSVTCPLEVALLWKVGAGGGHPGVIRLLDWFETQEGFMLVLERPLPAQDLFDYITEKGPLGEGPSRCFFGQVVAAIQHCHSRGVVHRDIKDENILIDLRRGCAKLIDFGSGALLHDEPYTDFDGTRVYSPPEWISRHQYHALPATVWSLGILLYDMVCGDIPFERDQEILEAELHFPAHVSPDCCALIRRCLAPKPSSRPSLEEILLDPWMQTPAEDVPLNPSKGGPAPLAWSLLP

[4] = molecular target: Pim3 kinase (Homo sapiens, UniProt Q86V86); assay: Pim3 ATP depletion assay; format: biochemical

IC50 ([1]; read-out: IC50 (μM) PIM1) | IC50 ([3]; read-out: IC50 (μM) PIM2) | IC50 ([4]; read-out: IC50 (μM) PIM3) | IC50 ([1]; read-out: PIM1 IC50) | IC50 ([3]; read-out: PIM2 IC50) | IC50 ([4]; read-out: PIM3 IC50) | Structure (SMILES) | EC50 ([2]; read-out: EC50 (μM) HEL 92.1.7) | EC50 ([2]; read-out: HEL 92.1.7 EC50)
< 1 µM | < 1 µM | < 1 µM |  |  |  | Cc1ccc(S(=O)(=O)N2CCCC2)cc1-c1ccc(N)c(C(=O)Nc2cnccc2N2CCC[C@H](N)C2)n1 [Example 321, 3-amino-6-[2-methyl-5-(pyrrolidine-1-sulfonyl)-phenyl]-pyridine-2-carboxylic acid ((S)-3-amino-3,4,5,6-tetrahydro-2H-[1,4′]bi-pyridinyl-3′-yl)-amide] | 1 to 5 µM | 
< 1 µM | < 1 µM | < 1 µM |  |  |  | CCN(CC)S(=O)(=O)c1ccc(C)c(-c2ccc(N)c(C(=O)Nc3cnccc3N3CCC[C@H](N)C3)n2)c1 [Example 329, 3-amino-6-(5-diethyl-sulfamoyl-2-methyl-phenyl)-pyridine-2-carboxylic acid ((S)-3-amino-3,4,5,6-tetra-hydro-2H-[1,4′]bipyridinyl-3′-yl)-amide] | 5 to 10 µM | 
< 1 µM | < 1 µM | < 1 µM |  |  |  | Cc1cc(Cl)ccc1-c1ccc(N)c(C(=O)Nc2cnccc2N2CCC[C@H](N)C2)n1 [Example 429, 3-amino-6-(4-chloro-2-methyl-phenyl)-pyridine-2-carboxylic acid ((S)-3-amino-3,4,5,6-tetra-hydro-2H-[1,4′]bipyridinyl-3′-yl)-amide] | 5 to 10 µM | 
< 1 µM | < 1 µM | < 1 µM |  |  |  | COc1ccccc1-c1ccc(N)c(C(=O)Nc2cnccc2N2CCC[C@H](N)C2)n1 [Example 337] | 5 to 10 µM | 
< 1 µM | < 1 µM | < 1 µM |  |  |  | CNC(=O)c1ccc(F)c(-c2ccc(N)c(C(=O)Nc3cnccc3N3CCC[C@H](N)C3)n2)c1 [Example 334, 3-amino-6-(2-fluoro-5-methylcarbamoyl-phenyl)-pyridine-2-carboxylic acid ((S)-3-amino-3,4,5,6-tetra-hydro-2H-[1,4′]bipyridinyl-3′-yl)-amide] | 5 to 10 µM | 
< 1 µM | < 1 µM | < 1 µM |  |  |  | Cc1ccc(S(=O)(=O)N(C)C)cc1-c1ccc(N)c(C(=O)Nc2cnccc2N2CCC[C@H](N)C2)n1 [Example 330, 3-amino-6-(5-dimethyl-sulfamoyl-2-methyl-phenyl)-pyridine-2-carboxylic acid ((S)-3-amino-3,4,5,6-tetra-hydro-2H-[1,4′]bipyridinyl-3′-yl)-amide] | > 10 µM | 
< 1 µM | < 1 µM | < 1 µM |  |  |  | Nc1ccc(-c2cccnc2Cl)nc1C(=O)Nc1cnccc1N1CCC[C@H](N)C1 [Example 331, 5-amino-2′-chloro-[2,3′]bi-pyridinyl-6-carboxylic acid ((S)-3-amino-3,4,5,6-tetra-hydro-2H-[1,4′]bipyridinyl-3′-yl)-amide] | 1 to 5 µM | 
 |  |  | < 1 µM | < 1 µM | < 1 µM | Cc1ccccc1-c1cnc(N)c(C(=O)Nc2[nH]c(=O)ncc2N2CCCCC2)n1 [Example 591, 3-amino-6-o-tolyl-pyrazine-2-carboxylic acid (2-oxo-5-piperidin-1-yl-2,3-dihydro-pyrimidin-4-yl)-amide] |  | 5 to 10 µM
< 1 µM | < 1 µM | < 1 µM |  |  |  | COc1ncccc1-c1ccc(N)c(C(=O)Nc2cnccc2N2CCC[C@H](N)C2)n1 [Example 423, 5-amino-2′-methoxy-[2,3′]bi-pyridinyl-6-carboxylic acid ((S)-3-amino-3,4,5,6-tetrahydro-2H-[1,4′]bipyridinyl-3′-yl)-amide] | 1 to 5 µM | 
 |  |  | < 1 µM | < 1 µM | < 1 µM | COc1ncccc1-c1ccc(N)c(C(=O)Nc2cnccc2N2CCCCC2)n1 [Example 587, 5-amino-2′-methoxy-[2,3′]bi-pyridinyl-6-carboxylic acid (3,4,5,6-tetrahydro-2H-[1,4′]bipyridinyl-3′-yl)-amide] |  | < 1 µM
